Source: ChEMBL document CHEMBL1275418, “IMP-15-producing Pseudomonas aeruginosa strain isolated in a U.S. medical center: a recent arrival from Mexico” (2008)

Assays:
Format in all cases: functional
Pseudomonas aeruginosa [1] = experiment: Antibacterial activity against Pseudomonas aeruginosa 1750J expressing beta-lactamase IMP-15 by Etest in presence of EDTA
Pseudomonas aeruginosa [2] = experiment: Antibacterial activity against Pseudomonas aeruginosa isolates by Etest
Pseudomonas aeruginosa [3] = experiment: Antibacterial activity against Pseudomonas aeruginosa 1750J expressing beta-lactamase IMP-15 by Etest
Pseudomonas aeruginosa [4] = experiment: Antibacterial activity against Pseudomonas aeruginosa 1750J expressing beta-lactamase IMP-15 by Etest in presence of beta-lactamase inhibitor Tazobactam

Molecule	MIC (Pseudomonas aeruginosa [1]) [µg/mL]	MIC (Pseudomonas aeruginosa [2]) [µg/mL]	MIC (Pseudomonas aeruginosa [3]) [µg/mL]	MIC (Pseudomonas aeruginosa [4]) [µg/mL]
O=C(O)C1=CC[C@@H]2CC(=O)N12 [CARBAPENEM]	8	> 256		
NC[C@H]1O[C@H](O[C@H]2[C@H](O)[C@@H](O[C@H]3O[C@H](CO)[C@@H](O)[C@H](N)[C@H]3O)[C@H](N)C[C@@H]2N)[C@H](N)C[C@@H]1O [TOBRAMYCIN]			> 256	
CCN1CCN(C(=O)N[C@@H](C(=O)N[C@@H]2C(=O)N3[C@@H]2SC(C)(C)[C@@H]3C(=O)O)c2ccccc2)C(=O)C1=O [PIPERACILLIN]				> 256
C[C@@H](O)[C@H]1C(=O)N2C(C(=O)O)=C(S[C@@H]3CN[C@H](C(=O)Nc4cccc(C(=O)O)c4)C3)[C@H](C)[C@H]12 [ERTAPENEM]			> 32	
CC(C)(O/N=C(\C(=O)N[C@@H]1C(=O)N2C(C(=O)[O-])=C(C[n+]3ccccc3)CS[C@H]12)c1csc(N)n1)C(=O)O [CEFTAZIDIME]		≥ 16	> 256	
C[C@@H](O)[C@H]1C(=O)N2C(C(=O)O)=C(SCCNC=N)C[C@H]12 [IMIPENEM ANHYDROUS]		≥ 8	> 32	
C[C@@H](O)[C@H]1C(=O)N2C(C(=O)O)=C(S[C@@H]3CN[C@H](C(=O)N(C)C)C3)[C@H](C)[C@H]12 [MEROPENEM]		≥ 8	> 32	
O=C(O)c1cn(C2CC2)c2cc(N3CCNCC3)c(F)cc2c1=O [CIPROFLOXACIN]			> 32	
GENTAMICIN			> 256	
